Test results taken from US7078403B1, “Antiviral agents” (Biota Scientific Management Pty Ltd., priority 1999, dated 2006).

Assays:
HRV type 1A = experiment: Inhibition of viral cytopathic effect (CPE), visual scoring or neutral red, HRV type 1A in MRC-5 cells; type: cell-based, human rhinovirus; settings: for Activity on Rhinovirus Type 1A EC50: HRV type 1A in MRC-5 cells, CPE inhibition; for Activity on Rhinovirus Type 1A SI: selectivity index = CC50 or MTC divided by EC50, HRV type 1A, MRC-5 cells
[1] = tested on: human embryo lung (MRC-5) cells; experiment: Cytotoxicity (CC50 or MTC) in uninfected MRC-5 cells; settings: unit not given

Row | Compound | Activity on Rhinovirus Type 1A EC50 (HRV type 1A) | Activity on Rhinovirus Type 1A SI (HRV type 1A) | Activity on Rhinovirus Type 1A MTC [1]
1 | C=CCON=Cc1ccc(OCC2CCN(c3ccc(Cl)nn3)CC2)cc1 [Compound 30] | 0.036 mg/L | >28 | >1
2 | CON=Cc1cc(O)cc(OCCC2CCN(c3ccc(Cl)nn3)CC2)c1 [Compound 38] | 0.69 mg/L | >1.45 | >1
3 | CCON=Cc1cccc(OCCC2CCN(c3ccc(C)nn3)CC2)c1 [Compound 46] | 0.062 mg/L | >16.0 | >1
4 | C=CCON=Cc1cccc(OCCC2CCN(c3ccc(C)nn3)CC2)c1 [Compound 47] | 0.066 mg/L | >15 | >1
5 | CON=Cc1cccc(OCCC2CCN(c3ccc(C)nn3)CC2)c1 [Compound 48] | 0.016 mg/L | >62 | >1
6 | CCON=Cc1ccc(OCCC2CCN(c3cccnn3)CC2)cc1 [Compound 49] | 0.056 mg/L | >17.8 | >1
7 | CCO/N=C/c1ccc(OCCC2CCN(c3ccc(Cl)nn3)CC2)cc1OC [Compound 50] | 0.008 mg/L | >121.7 | >1
8 | C=CCON=Cc1ccc(OCCC2CCN(c3ccc(C)nn3)CC2)c(C)c1 [Compound 53] | <0.003 mg/L | >208 | 0.667
9 | CCCON=Cc1ccc(OCCC2CCN(c3ccc(C)nn3)CC2)c(C)c1 [Compound 54] | 0.007 mg/L | 91 | 0.663
10 | CCON=Cc1ccc(OC2CCN(c3ccc(Cl)nn3)CC2)cc1 [Compound 55] | 2.68 mg/L | >3 | >10
11 | CCON=Cc1ccc(OCCC2CCN(c3ccc(-c4ccccc4)nn3)CC2)cc1 [Compound 56] | 2.31 mg/L | >3 | >10
12 | CCON=Cc1ccc(OCCC2CCN(c3ccc(C(F)(F)F)nn3)CC2)cc1 [Compound 58] | 0.498 mg/L | >2 | >1
13 | Cc1ccc(N2CCC(CCOc3ccc(C=NOCC(F)(F)F)cc3)CC2)nn1 [Compound 59] | 0.162 mg/L | 3.4 | 0.56
14 | CON=Cc1cccc(OCC2CCN(c3ccc(Cl)nn3)CC2)c1 [Compound 60] | 0.183 mg/L | >17 | >1
15 | CCON=Cc1cccc(OCC2CCN(c3ccc(Cl)nn3)CC2)c1 [Compound 61] | 0.058 mg/L | >14 | >1
16 | C=CCON=Cc1cccc(OCC2CCN(c3ccc(Cl)nn3)CC2)c1 [Compound 62] | 0.067 mg/L | >14 | >1
17 | C=CCON=Cc1ccc(OCCC2CCN(c3ccc(OC)nn3)CC2)cc1 [Compound 63] | 0.06 mg/L | >15 | >1
18 | CCON=Cc1ccc(OCCN2CCN(c3cccnn3)CC2)cc1 [Compound 64] | 0.05 mg/L | >17 | >1

Row | Compound | Activity on Rhinovirus Type 1A EC50 (HRV type 1A) | Activity on Rhinovirus Type 1A SI (HRV type 1A) | Activity on Rhinovirus Type 1A MTC [1]
19 | CCON=Cc1cccc(OCCN2CCN(c3cccnn3)CC2)c1 [Compound 65] | 0.21 mg/L | >4.5 | >1
20 | C=CCON=Cc1ccc(OCCN2CCN(c3cccnn3)CC2)cc1 [Compound 66] | 0.05 mg/L | >18 | >1
21 | CON=Cc1ccc(OCCN2CCN(c3ccc(C)nn3)CC2)cc1 [Compound 67] | 0.04 mg/L | >20 | >1
22 | CCON=Cc1ccc(OCCN2CCN(c3ccc(C)nn3)CC2)cc1 [Compound 68] | 0.04 mg/L | >25 | >1
23 | C=CCON=Cc1ccc(OCCN2CCN(c3ccc(C)nn3)CC2)cc1 [Compound 69] | 0.18 mg/L | >5 | >1
24 | CON=Cc1cccc(OCCN2CCN(c3ccc(C)nn3)CC2)c1 [Compound 70] | 0.05 mg/L | >16 | >1
25 | CCON=Cc1cccc(OCCN2CCN(c3ccc(C)nn3)CC2)c1 [Compound 71] | 0.05 mg/L | >18 | >1
26 | C=CCON=Cc1cccc(OCCN2CCN(c3ccc(C)nn3)CC2)c1 [Compound 72] | 0.16 mg/L | >6 | >1
27 | CON=Cc1ccc(OCCN2CCN(c3ccc(Cl)nn3)CC2)cc1 [Compound 73] | 0.003 mg/L | >312 | >1
28 | C=CCON=Cc1ccc(OCCN2CCN(c3ccc(Cl)nn3)CC2)cc1 [Compound 74] | 0.02 mg/L | >46 | >1
29 | CON=Cc1cccc(OCCN2CCN(c3ccc(Cl)nn3)CC2)c1 [Compound 75] | 0.01 mg/L | >98 | >1
30 | CCON=Cc1cccc(OCCN2CCN(c3ccc(Cl)nn3)CC2)c1 [Compound 76] | 0.01 mg/L | >98 | >1
31 | C=CCON=Cc1cccc(OCCN2CCN(c3ccc(Cl)nn3)CC2)c1 [Compound 77] | 0.003 mg/L | >279 | >1
32 | CCON=Cc1ccc(OCCC2CCN(c3ccc(C(F)(F)F)cn3)CC2)cc1 [Compound 84] | 0.05 mg/L | >19.6 | >1
33 | CCCON=Cc1ccc(OCCC2CCN(c3ccc(C)nn3)CC2)cc1 [Compound 85] | 0.08 mg/L | >12 | >1
34 | C=CCON=Cc1ccc(OCCC2CCN(c3ccc(C)nn3)CC2)cc1 [Compound 87] | 0.01 mg/L | >51 | >1
35 | C#CCON=Cc1ccc(OCCC2CCN(c3ccc(C)nn3)CC2)cc1 [Compound 88] | 0.005 mg/L | >172 | >1
